Assay results taken from publication PMC3933419, “Synthesis and Properties of a Selective Inhibitor of Homeodomain–Interacting Protein Kinase 2 (HIPK2)” (PLoS ONE, 2014).
pIC50: −log10 of the molar value. Values joined by “and” are separate entries in the source; they are usually repeats but may differ in a detail not shown here. Equal entries are not always repeated.

How the values were obtained:
CK2 = target: T1, CK2 (Rattus norvegicus, UniProt P19139); experiment: CK2 phosphorylation assay; type: biochemical; details: 20 µM ATP
T1 construct: Native CK2 and CK1 were purified from rat liver; from tissue; host or cells: rat liver
T1 sequence (P19139 whole entry): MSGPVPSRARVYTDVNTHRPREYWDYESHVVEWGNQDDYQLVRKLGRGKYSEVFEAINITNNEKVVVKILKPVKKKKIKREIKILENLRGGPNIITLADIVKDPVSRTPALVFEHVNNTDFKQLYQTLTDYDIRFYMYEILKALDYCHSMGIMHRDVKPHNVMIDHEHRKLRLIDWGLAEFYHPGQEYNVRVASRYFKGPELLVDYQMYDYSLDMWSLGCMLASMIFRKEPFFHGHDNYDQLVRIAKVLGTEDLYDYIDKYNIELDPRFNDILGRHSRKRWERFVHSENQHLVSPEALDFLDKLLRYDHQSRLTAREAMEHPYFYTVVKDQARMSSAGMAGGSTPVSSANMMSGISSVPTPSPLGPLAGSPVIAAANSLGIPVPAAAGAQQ
T1 sequence (P67874 whole entry partner): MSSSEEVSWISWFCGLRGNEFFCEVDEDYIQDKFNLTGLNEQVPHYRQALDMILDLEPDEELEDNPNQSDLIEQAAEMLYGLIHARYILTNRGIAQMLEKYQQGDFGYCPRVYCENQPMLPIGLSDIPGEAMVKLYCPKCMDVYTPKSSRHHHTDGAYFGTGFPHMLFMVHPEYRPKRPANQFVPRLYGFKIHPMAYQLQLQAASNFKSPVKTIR
Procedure: (§1) Native CK2 and CK1 were purified from rat liver.
(§2) PIM1, CK2, CK1 phosphorylation assays were performed following similar procedures used for HIPK2 except that preincubation was omitted. In detail, PIM1 activity was determined at 100 µM ATP concentration and in the presence of 30 µM synthetic peptide substrate […]. CK2 and CK1 activities were assayed in a buffer containing 50 mM Tris/HCl (pH 7.5), 100 mM NaCl, 12 mM MgCl2, 100 µM specific peptide substrate […] (for CK2), or 200 µM […] (for CK1) and 20 µM [γ-^33P]ATP (500–1000 c.p.m./pmol).

PIM1 = target: T2, PIM1 (Homo sapiens, UniProt P11309); experiment: PIM1 phosphorylation assay; type: biochemical; details: 100 µM ATP
T2 construct: The source of HIPK2 and of all of the other protein kinases used for specificity assays is as described elsewhere
T2 sequence (P11309 whole entry, species assumed): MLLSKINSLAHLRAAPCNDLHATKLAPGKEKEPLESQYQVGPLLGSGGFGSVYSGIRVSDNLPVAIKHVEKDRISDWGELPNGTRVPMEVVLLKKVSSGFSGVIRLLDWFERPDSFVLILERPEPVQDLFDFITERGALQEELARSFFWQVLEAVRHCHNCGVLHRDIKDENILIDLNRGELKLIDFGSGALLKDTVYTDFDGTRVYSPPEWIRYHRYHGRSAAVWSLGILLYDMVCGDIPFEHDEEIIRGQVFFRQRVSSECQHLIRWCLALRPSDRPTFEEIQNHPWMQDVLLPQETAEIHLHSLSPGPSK
Procedure: as §2

CK1 = CK1 phosphorylation assay; type: biochemical, rat; details: 20 µM ATP
Procedure: as §1, §2

[1] = test system: panel of 76 protein kinases; experiment: Selectivity parameters (Lorenz curve, Gini coefficient, hit rate) of TBID; type: biochemical
Procedure: (§3) Conditions for the activity assays of all other protein kinases tested in selectivity experiments are as described or referenced in [9].
Lorenz curves were derived from the selectivity data. Gini coefficients and hit rates (expressing the percent of kinases inhibited >50% by a given compound) were calculated as described in [25].

endogenous HIPK2 = target: T3, endogenous HIPK2 (Homo sapiens, UniProt Q9H2X6); experiment: Activity of HIPK2 immunoprecipitated from treated HepG2 cells; type: cell-based
T3 construct: endogenous in cells; host or cells: HepG2
T3 sequence (Q9H2X6 whole entry): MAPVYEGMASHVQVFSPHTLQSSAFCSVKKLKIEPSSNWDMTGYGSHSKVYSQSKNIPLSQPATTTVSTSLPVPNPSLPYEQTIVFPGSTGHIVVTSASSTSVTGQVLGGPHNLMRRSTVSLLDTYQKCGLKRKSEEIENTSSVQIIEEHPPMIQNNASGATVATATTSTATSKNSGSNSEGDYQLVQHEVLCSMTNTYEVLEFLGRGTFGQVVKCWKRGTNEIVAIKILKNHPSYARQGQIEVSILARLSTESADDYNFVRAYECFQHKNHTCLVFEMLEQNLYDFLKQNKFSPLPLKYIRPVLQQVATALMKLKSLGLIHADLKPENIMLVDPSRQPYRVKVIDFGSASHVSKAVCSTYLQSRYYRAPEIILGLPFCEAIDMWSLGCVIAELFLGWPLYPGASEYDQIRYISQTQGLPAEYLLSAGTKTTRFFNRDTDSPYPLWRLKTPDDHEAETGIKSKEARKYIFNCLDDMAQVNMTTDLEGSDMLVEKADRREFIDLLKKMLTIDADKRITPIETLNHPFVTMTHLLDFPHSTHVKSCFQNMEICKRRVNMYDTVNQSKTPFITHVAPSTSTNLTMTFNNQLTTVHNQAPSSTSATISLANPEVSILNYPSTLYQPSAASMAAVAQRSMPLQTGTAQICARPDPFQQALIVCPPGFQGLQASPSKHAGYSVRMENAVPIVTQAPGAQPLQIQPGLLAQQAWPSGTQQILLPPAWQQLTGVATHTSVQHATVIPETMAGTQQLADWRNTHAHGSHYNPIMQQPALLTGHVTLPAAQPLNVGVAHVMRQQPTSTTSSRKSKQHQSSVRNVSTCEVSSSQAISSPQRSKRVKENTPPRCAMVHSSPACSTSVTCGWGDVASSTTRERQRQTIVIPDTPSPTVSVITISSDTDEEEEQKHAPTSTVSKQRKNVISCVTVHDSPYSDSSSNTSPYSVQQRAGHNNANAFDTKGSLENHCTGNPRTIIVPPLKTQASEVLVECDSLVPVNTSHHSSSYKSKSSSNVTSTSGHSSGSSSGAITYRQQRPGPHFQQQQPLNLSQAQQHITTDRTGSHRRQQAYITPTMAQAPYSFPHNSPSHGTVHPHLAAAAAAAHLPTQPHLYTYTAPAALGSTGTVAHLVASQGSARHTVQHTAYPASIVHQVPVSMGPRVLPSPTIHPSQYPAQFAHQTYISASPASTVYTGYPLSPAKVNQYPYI
Procedure: (§4) HepG2 cells (human hepatocellular carcinoma) were cultured in Dulbecco's modified Eagle's medium (DMEM; Sigma) supplemented with 10% fetal calf serum, 2 mM L-glutamine, 100 unit/ml penicillin and 100 µg/ml streptomycin; CEM cells (human T lymphoblastoid cells) were cultured n RPMI-1640 (Sigma) with the same supplements. Cells were cultured in an atmosphere containing 5% CO2, at 37°C. Treatments with TBID were performed in the same medium but with 1% fetal calf serum; control cells were treated with the solvent (DMSO). Total cell lysates were prepared as in [29].
Alternatively, HIPK2 was immunoprecipitated with 2.5 µl anti-HIPK2 (Epitomics) from 350 µg of total lysate proteins deriving from HepG2 cells either treated or not with TBID following a protocol elsewhere described. An aspecific antibody was used as negative control. Immunoprecipitated HIPK2 activity was measured towards the specific peptide substrate ([…]) at 1.6 mM concentration, for 10 min at 30°C, under the same conditions described above for the in vitro kinase assay. Peptide radioactivity was measured after sample spotting on phospho-cellulose paper, washing and scintillation counting, as in [30], while the amount of HIPK2 immunoprecipitated was evaluated by WB.

Ser46 of p53 = experiment: Phosphorylation of p53 Ser46 in treated CEM cells (WB); type: cell-based, human; details: 6 h treatment
Procedure: Treatments with TBID were performed in the same medium but with 1% fetal calf serum; control cells were treated with the solvent (DMSO). Total cell lysates were prepared as in [29].
Endogenous HIPK2 activity was evaluated by measuring the phosphorylation level of its target site Ser46 of p53: to this purpose, CEM cells were treated for 6 h as indicated, then lysed. […] Bands were quantified by Carestream Molecular Imaging Software (Kodak) and the obtained values were normalized to total p53 signal with a Cell Signaling Technology antibody; anti-actin (Sigma) was used as loading control.

HepG2 or CEM cells = experiment: Cell viability (MTT) and PARP cleavage; type: cell-based, human; details: 6 h, PARP (Figure 6C)
Procedure: as §4
Cell viability was evaluated by means of MTT (3-(4,5-dimethylthiazol-2-yl)-[…] bromide) reagent; 10^5 cells/100 µl were incubated in a 96-well plate and treated for 6 h as indicated. 1 h before the end of the incubation, 10 µl of MTT solution (5 mg/ml in PBS) was added to each well. Incubations were stopped by addition of 20 µl of lysis solution at pH 4.7, as described elsewhere. Plates were read for OD at λ 590 nm, in a Titertek Multiskan Plus plate reader (Flow Laboratories). Apoptosis was evaluated looking for the cleavage of the caspase substrate PARP with anti-PARP antibody (Roche), recognizing both the full length (116 kDa) and the cleaved fragment (85 kDa) of PARP.

IGF-1R = IGF-1R (Homo sapiens, UniProt P08069); experiment: Kinase panel selectivity profiling; type: biochemical; details: TBID 1 μM, 125 kinase panel, read-out: % activity of the enzyme
Chain of IGF-1R (P08069 31-1367): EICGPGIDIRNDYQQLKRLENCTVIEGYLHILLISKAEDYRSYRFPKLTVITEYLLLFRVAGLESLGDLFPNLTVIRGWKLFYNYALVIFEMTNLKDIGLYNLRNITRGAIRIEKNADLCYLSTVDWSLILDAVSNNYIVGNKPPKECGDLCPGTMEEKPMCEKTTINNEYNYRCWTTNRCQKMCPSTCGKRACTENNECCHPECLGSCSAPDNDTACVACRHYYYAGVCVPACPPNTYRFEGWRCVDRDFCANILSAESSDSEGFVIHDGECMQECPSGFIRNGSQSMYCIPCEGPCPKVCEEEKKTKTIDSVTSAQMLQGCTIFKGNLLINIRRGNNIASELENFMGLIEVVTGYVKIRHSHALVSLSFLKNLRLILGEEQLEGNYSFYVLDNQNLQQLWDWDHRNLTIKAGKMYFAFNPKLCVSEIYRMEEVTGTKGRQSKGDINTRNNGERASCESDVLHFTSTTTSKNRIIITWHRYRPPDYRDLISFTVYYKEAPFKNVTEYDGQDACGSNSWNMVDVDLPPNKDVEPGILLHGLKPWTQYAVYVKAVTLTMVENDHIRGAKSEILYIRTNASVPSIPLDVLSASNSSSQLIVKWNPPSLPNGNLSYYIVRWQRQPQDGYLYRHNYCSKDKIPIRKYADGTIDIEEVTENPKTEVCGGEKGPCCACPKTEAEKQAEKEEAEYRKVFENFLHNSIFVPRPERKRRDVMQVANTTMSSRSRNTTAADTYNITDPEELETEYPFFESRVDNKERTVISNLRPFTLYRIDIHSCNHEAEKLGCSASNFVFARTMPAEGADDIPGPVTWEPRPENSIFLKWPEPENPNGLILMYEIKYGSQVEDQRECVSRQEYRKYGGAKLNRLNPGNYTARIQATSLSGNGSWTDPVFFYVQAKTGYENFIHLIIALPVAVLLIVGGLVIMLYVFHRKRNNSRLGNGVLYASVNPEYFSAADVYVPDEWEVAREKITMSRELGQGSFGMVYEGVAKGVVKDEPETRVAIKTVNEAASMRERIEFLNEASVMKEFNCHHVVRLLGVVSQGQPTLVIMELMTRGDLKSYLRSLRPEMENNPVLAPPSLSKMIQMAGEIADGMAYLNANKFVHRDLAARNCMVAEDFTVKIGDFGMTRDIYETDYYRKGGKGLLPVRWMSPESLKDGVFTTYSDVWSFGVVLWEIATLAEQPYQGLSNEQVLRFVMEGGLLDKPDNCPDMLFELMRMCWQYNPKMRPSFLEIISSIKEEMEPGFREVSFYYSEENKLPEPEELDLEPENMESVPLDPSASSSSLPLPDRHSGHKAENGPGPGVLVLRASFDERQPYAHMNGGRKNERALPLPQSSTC
Description: (§5) The source of HIPK2 and of all of the other protein kinases used for specificity assays is as described elsewhere.
as §3

IKKe = IKKe (Homo sapiens, UniProt Q14164); experiment: Kinase panel selectivity profiling; type: biochemical; details: TBID 1 μM, 125 kinase panel, read-out: % activity of the enzyme
Description: as §5, §3

Lck = Lck (Homo sapiens, UniProt P06239); experiment: Kinase panel selectivity profiling; type: biochemical; details: TBID 1 μM, 125 kinase panel, read-out: % activity of the enzyme
Description: as §5, §3

PLK1 = PLK1 (Homo sapiens, UniProt P53350); experiment: Kinase panel selectivity profiling; type: biochemical; details: TBID 1 μM, 125 kinase panel, read-out: % activity of the enzyme
Chain of PLK1 (P53350 whole entry): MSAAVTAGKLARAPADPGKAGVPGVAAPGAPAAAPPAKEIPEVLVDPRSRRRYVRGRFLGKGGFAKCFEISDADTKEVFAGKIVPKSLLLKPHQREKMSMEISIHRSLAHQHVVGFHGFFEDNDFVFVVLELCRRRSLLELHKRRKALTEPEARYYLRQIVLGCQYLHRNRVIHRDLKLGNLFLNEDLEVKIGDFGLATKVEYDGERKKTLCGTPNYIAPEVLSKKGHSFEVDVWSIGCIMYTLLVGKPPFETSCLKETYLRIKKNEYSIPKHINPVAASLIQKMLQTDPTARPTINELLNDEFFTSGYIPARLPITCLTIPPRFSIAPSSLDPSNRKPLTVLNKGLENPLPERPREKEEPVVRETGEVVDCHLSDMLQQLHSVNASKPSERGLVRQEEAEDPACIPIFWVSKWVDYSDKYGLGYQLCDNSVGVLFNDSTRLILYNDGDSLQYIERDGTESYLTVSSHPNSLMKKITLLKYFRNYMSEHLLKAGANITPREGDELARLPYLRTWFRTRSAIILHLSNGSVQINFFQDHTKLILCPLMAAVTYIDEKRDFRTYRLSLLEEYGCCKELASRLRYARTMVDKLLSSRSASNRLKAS
Description: as §5, §3

RSK1 = RSK1 (Homo sapiens, UniProt Q15418); experiment: Kinase panel selectivity profiling; type: biochemical; details: TBID 1 μM, 125 kinase panel, read-out: % activity of the enzyme
Chain of RSK1 (Q15418 whole entry): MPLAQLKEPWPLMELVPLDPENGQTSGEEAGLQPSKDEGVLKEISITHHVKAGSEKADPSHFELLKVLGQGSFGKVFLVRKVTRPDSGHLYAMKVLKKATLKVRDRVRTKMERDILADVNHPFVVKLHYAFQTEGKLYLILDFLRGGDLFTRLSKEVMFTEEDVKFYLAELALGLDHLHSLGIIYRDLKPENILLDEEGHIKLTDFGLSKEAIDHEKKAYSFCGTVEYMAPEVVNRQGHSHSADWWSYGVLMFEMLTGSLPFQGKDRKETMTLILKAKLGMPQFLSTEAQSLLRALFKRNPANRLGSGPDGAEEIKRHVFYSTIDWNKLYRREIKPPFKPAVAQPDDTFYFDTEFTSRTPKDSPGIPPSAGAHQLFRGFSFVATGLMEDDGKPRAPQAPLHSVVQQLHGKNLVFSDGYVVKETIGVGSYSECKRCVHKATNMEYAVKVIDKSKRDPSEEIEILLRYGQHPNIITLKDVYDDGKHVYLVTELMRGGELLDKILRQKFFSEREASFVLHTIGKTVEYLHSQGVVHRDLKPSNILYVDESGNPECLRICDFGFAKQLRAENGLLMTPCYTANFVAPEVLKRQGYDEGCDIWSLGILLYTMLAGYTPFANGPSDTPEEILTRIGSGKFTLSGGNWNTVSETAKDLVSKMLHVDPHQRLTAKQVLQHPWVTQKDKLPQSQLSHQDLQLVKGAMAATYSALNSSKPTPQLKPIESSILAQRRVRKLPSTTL
Description: as §5, §3

VEG-FR = VEG-FR (Homo sapiens, UniProt P17948); experiment: Kinase panel selectivity profiling; type: biochemical; details: TBID 1 μM, 125 kinase panel, read-out: % activity of the enzyme
Description: as §5, §3

## O=C1c2c(Br)c(Br)c(Br)c(Br)c2C(=O)N1c1ncc[nH]1 [TBID, 4,5,6,7-Tetrabromo-2-(1H-imidazol-2-yl)isoindoline-1,3-dione]
CK2
  pIC50: 5.26
PIM1
  pIC50: < 4.40
CK1
  pIC50: < 4.40
[1]; 10 µM TBID
  number of kinases inhibited >90%: 1
[1]; 10 µM, 76 PKs
  Gini coefficient: 0.592
[1]; 10 µM, 76 PKs, kinases inhibited >50%
  Hit rate: 0.10
Endogenous HIPK2; HIPK2 activity in cells treated with TBID, read-out: IC50 in cells (concentration required for half maximal inhibition)
  pIC50: ~4.30 and 4.30
Endogenous HIPK2; HepG2 cells, increasing concentrations, immunoprecipitated HIPK2
  endogenous HIPK2 activity upon cell treatment: reduced in a dose dependent manner
Ser46 of p53
  phosphorylation level of p53 Ser46: markedly reduces
HepG2 or CEM cells
  cell toxicity: devoid of cell toxicity
IGF-1R
  activity at 1 µM: 68%
IKKe
  activity at 1 µM: 85%
Lck
  activity at 1 µM: 109%
PLK1
  activity at 1 µM: 83%
RSK1
  activity at 1 µM: 93%
VEG-FR
  activity at 1 µM: 115%
